Laboratory results from paper PMC6833013 (Molecules, 2019).

Legend:
Bacillus subtilis MB964 = format: cell-based
HepG2 = assay: cells; format: cell-based; conditions: Homo sapiens, HepG2, 24 h, read-out: IC50 HepG2
MCF-7 = assay: cells; format: cell-based; conditions: Homo sapiens, MCF7, 24 h, read-out: IC50 MCF-7
RCC4-VA = assay: cells; format: cell-based; conditions: Homo sapiens, 24 h, read-out: IC50 RCC4-VA
RCC4-VHL = assay: cells; format: cell-based; conditions: Homo sapiens, 24 h, read-out: IC50 RCC4-VHL
Fa2N4 = assay: cells; format: cell-based; conditions: Homo sapiens, Fa2N-4, 24 h, read-out: IC50 Fa2N4
A549 = assay: cells; format: cell-based; conditions: Homo sapiens, A549, 24 h, read-out: IC50 A549
HT29 = assay: cells; format: cell-based; conditions: Homo sapiens, HT-29, 24 h, read-out: IC50 HT29

**Q.** For `CCC(=O)OC1CC2OC3C=C(C)CCC3(C)C1(C)C2(O)CO` [Compound 16, (4R,12S)-12-Hydroxy-12-hydroxymethyltrichothec-9-en-4-yl propionate], which “B. subtilis MB964 inhibition halo” value (Bacillus subtilis MB964) is on record?
**A.** no halo

**Q.** What about the IC50 (HepG2) of the same compound?
**A.** > 20 µg/mL

**Q.** What about the IC50 (MCF-7) of the same compound?
**A.** > 20 µg/mL

**Q.** And the IC50 (RCC4-VA)?
**A.** > 20 µg/mL

**Q.** What about the IC50 (RCC4-VHL) of the same compound?
**A.** > 20 µg/mL

**Q.** What about the IC50 (Fa2N4) of the same compound?
**A.** > 20 µg/mL

**Q.** And the IC50 (A549)?
**A.** > 20 µg/mL

**Q.** And the IC50 (HT29)?
**A.** > 20 µg/mL

**Q.** What about the “cytotoxic activity in all the cell lines tested” value (human cell lines) of the same compound?
**A.** lost all their activity

**Q.** What does the source list for `CC(=O)OC1CC2OC3C=C(C)CCC3(C)C1(C)C2(O)CO` [Compound 3, (4R,12S)-12-Hydroxy-12-(hydroxymethyl)trichothec-9-en-4-yl acetate]?
**A.** B. subtilis MB964 inhibition halo (Bacillus subtilis MB964): no halo; IC50 (HepG2): > 20 µg/mL; IC50 (MCF-7): > 20 µg/mL; IC50 (RCC4-VA): > 20 µg/mL; IC50 (RCC4-VHL): > 20 µg/mL; IC50 (Fa2N4): > 20 µg/mL; IC50 (A549): > 20 µg/mL; IC50 (HT29): > 20 µg/mL; cytotoxic activity in all the cell lines tested (human cell lines): lost all their activity
